PubChem BioAssay (NCI)
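48-hour exposure; five concentrations; linearly interpolated endpoints. Definition used: TGI = concentration required for complete inhibition of growth.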

What was measured:
Assay in all cases: inhibition of tumour cell growth, NCI panel, 48 h
UO-31 renal = test system: UO-31 renal
SN12C renal = test system: SN12C renal
HOP-62 NSCLC = test system: HOP-62 NSCLC
OVCAR-3 ovarian = test system: OVCAR-3 ovarian
TK-10 renal = test system: TK-10 renal
HL-60(TB) leukemia = test system: HL-60(TB) leukemia
NCI-H226 lung = test system: NCI-H226 lung
SR leukemia = test system: SR leukemia
HCC-2998 colon = test system: HCC-2998 colon
MOLT-4 leukemia = test system: MOLT-4 leukemia
SF-295 CNS = test system: SF-295 CNS
CAKI-1 renal = test system: CAKI-1 renal
T-47D breast = test system: T-47D breast
M14 melanoma = test system: M14 melanoma
NCI-H522 lung = test system: NCI-H522 lung
NCI/ADR-RES ovarian = test system: NCI/ADR-RES ovarian
RPMI-8226 leukemia = test system: RPMI-8226 leukemia
CCRF-CEM leukemia = test system: CCRF-CEM leukemia
SNB-75 CNS = test system: SNB-75 CNS
IGROV1 ovarian = test system: IGROV1 ovarian
OVCAR-8 ovarian = test system: OVCAR-8 ovarian
NCI-H23 lung = test system: NCI-H23 lung
RXF 393 renal = test system: RXF 393 renal
SF-539 CNS = test system: SF-539 CNS
EKVX NSCLC = test system: EKVX NSCLC
NCI-H460 lung = test system: NCI-H460 lung
OVCAR-4 ovarian = test system: OVCAR-4 ovarian
MDA-MB-435 = test system: MDA-MB-435
DU-145 prostate = test system: DU-145 prostate
SNB-19 CNS = test system: SNB-19 CNS
786-0 renal = test system: 786-0 renal
A498 renal = test system: A498 renal
K-562 leukemia = test system: K-562 leukemia
KM12 colon = test system: KM12 colon
BT-549 breast = test system: BT-549 breast
UACC-62 melanoma = test system: UACC-62 melanoma
OVCAR-5 ovarian = test system: OVCAR-5 ovarian
SK-MEL-2 melanoma = test system: SK-MEL-2 melanoma
HCT-15 colon = test system: HCT-15 colon
HS 578T breast = test system: HS 578T breast
ACHN renal = test system: ACHN renal
MDA-MB-231 breast = test system: MDA-MB-231 breast
COLO 205 colon = test system: COLO 205 colon
SW-620 colon = test system: SW-620 colon
A549 NSCLC = test system: A549 NSCLC
PC-3 prostate = test system: PC-3 prostate
HOP-92 NSCLC = test system: HOP-92 NSCLC
U251 CNS = test system: U251 CNS
SK-OV-3 ovarian = test system: SK-OV-3 ovarian
HCT-116 colon = test system: HCT-116 colon
UACC-257 melanoma = test system: UACC-257 melanoma
MALME-3M melanoma = test system: MALME-3M melanoma
SK-MEL-5 melanoma = test system: SK-MEL-5 melanoma
SK-MEL-28 melanoma = test system: SK-MEL-28 melanoma
SF-268 CNS = test system: SF-268 CNS
LOX IMVI melanoma = test system: LOX IMVI melanoma
HT29 colon = test system: HT29 colon
MCF7 breast = test system: MCF7 breast

Work on `COC(=O)[C@]12CCC(C)(C)C[C@H]1[C@H]1C(=O)C=C3[C@@]4(C)C=C(C#N)C(=O)C(C)(C)[C@@H]4CC[C@@]3(C)[C@]1(C)CC2` yielded a TGI (UO-31 renal) of 1150 nM, a TGI (SN12C renal) of 187 nM and a TGI (HOP-62 NSCLC) of 54.7 nM. For the same compound, the TGI (OVCAR-3 ovarian) was 61.5 nM, the TGI (TK-10 renal) was 152 nM and the TGI (HL-60(TB) leukemia) was 421 nM. For the same compound, the TGI (NCI-H226 lung) was 301 nM, the TGI (SR leukemia) was 141 nM and the TGI (HCC-2998 colon) was 30.5 nM. For the same compound, the TGI (MOLT-4 leukemia) was 1560 nM, the TGI (SF-295 CNS) was 105 nM and the TGI (CAKI-1 renal) was 78 nM. It also gave a TGI (T-47D breast) of 159 nM, a TGI (M14 melanoma) of 87.6 nM and a TGI (NCI-H522 lung) of over 100000 nM. For the same compound, the TGI (NCI/ADR-RES ovarian) was 33.7 nM, the TGI (RPMI-8226 leukemia) was 126 nM and the TGI (CCRF-CEM leukemia) was over 100000 nM. It also gave a TGI (SNB-75 CNS) of 3620 nM, a TGI (IGROV1 ovarian) of 1150 nM and a TGI (OVCAR-8 ovarian) of 41.4 nM. It also gave a TGI (NCI-H23 lung) of 39.2 nM, a TGI (RXF 393 renal) of over 100000 nM and a TGI (SF-539 CNS) of 103 nM. The TGI (EKVX NSCLC) was 208 nM, the TGI (NCI-H460 lung) was over 13500 nM and the TGI (OVCAR-4 ovarian) was over 7760 nM. For the same compound, the TGI (MDA-MB-435) was 58.5 nM, the TGI (DU-145 prostate) was 295 nM and the TGI (SNB-19 CNS) was 243 nM. For the same compound, the TGI (786-0 renal) was 415 nM, the TGI (A498 renal) was 114 nM and the TGI (K-562 leukemia) was over 27900 nM. For the same compound, the TGI (KM12 colon) was 159 nM, the TGI (BT-549 breast) was 194 nM and the TGI (UACC-62 melanoma) was 94.5 nM. For the same compound, the TGI (OVCAR-5 ovarian) was 194 nM, the TGI (SK-MEL-2 melanoma) was 187 nM and the TGI (HCT-15 colon) was 39.2 nM. It also gave a TGI (HS 578T breast) of 2140 nM, a TGI (ACHN renal) of 63.9 nM and a TGI (MDA-MB-231 breast) of 106 nM. For the same compound, the TGI (COLO 205 colon) was 122 nM, the TGI (SW-620 colon) was 946 nM and the TGI (A549 NSCLC) was 1290 nM. For the same compound, the TGI (PC-3 prostate) was 469 nM, the TGI (HOP-92 NSCLC) was 4030 nM and the TGI (U251 CNS) was 74.4 nM. It also gave a TGI (SK-OV-3 ovarian) of 1100 nM, a TGI (HCT-116 colon) of 44.1 nM and a TGI (UACC-257 melanoma) of 79.5 nM. The TGI (MALME-3M melanoma) was 143 nM and the TGI (SK-MEL-5 melanoma) was 109 nM.

With `COc1ccc(OC)c(C(Cc2ccnc3ccccc23)Cc2ccnc3ccccc23)c1` the TGI (UO-31 renal) was over 10000 nM, the TGI (SN12C renal) was over 10000 nM and the TGI (HOP-62 NSCLC) was over 10000 nM. For the same compound, the TGI (OVCAR-3 ovarian) was over 10000 nM, the TGI (TK-10 renal) was over 10000 nM and the TGI (SK-MEL-28 melanoma) was over 10000 nM. It also gave a TGI (NCI-H226 lung) of over 10000 nM, a TGI (HCC-2998 colon) of over 10000 nM and a TGI (SF-268 CNS) of over 10000 nM. It also gave a TGI (LOX IMVI melanoma) of over 10000 nM, a TGI (MOLT-4 leukemia) of over 10000 nM and a TGI (HT29 colon) of over 10000 nM. For the same compound, the TGI (SF-295 CNS) was over 10000 nM, the TGI (CAKI-1 renal) was over 10000 nM and the TGI (T-47D breast) was over 10000 nM. The TGI (M14 melanoma) was over 10000 nM, the TGI (NCI-H522 lung) was over 10000 nM and the TGI (NCI/ADR-RES ovarian) was over 10000 nM. It also gave a TGI (RPMI-8226 leukemia) of over 10000 nM, a TGI (CCRF-CEM leukemia) of over 10000 nM and a TGI (SNB-75 CNS) of over 10000 nM. For the same compound, the TGI (IGROV1 ovarian) was over 10000 nM, the TGI (OVCAR-8 ovarian) was over 10000 nM and the TGI (NCI-H23 lung) was over 10000 nM. For the same compound, the TGI (RXF 393 renal) was over 10000 nM, the TGI (SF-539 CNS) was over 10000 nM and the TGI (EKVX NSCLC) was over 10000 nM. The TGI (MCF7 breast) was over 10000 nM, the TGI (NCI-H460 lung) was over 10000 nM and the TGI (OVCAR-4 ovarian) was over 10000 nM. It also gave a TGI (MDA-MB-435) of over 10000 nM, a TGI (DU-145 prostate) of over 10000 nM and a TGI (SNB-19 CNS) of over 10000 nM. For the same compound, the TGI (786-0 renal) was over 10000 nM, the TGI (A498 renal) was over 10000 nM and the TGI (K-562 leukemia) was over 10000 nM. It also gave a TGI (KM12 colon) of over 10000 nM, a TGI (BT-549 breast) of over 10000 nM and a TGI (UACC-62 melanoma) of over 10000 nM. For the same compound, the TGI (OVCAR-5 ovarian) was over 10000 nM, the TGI (SK-MEL-2 melanoma) was over 10000 nM and the TGI (HCT-15 colon) was over 10000 nM. It also gave a TGI (HS 578T breast) of over 10000 nM, a TGI (ACHN renal) of over 10000 nM and a TGI (MDA-MB-231 breast) of over 10000 nM. For the same compound, the TGI (COLO 205 colon) was over 10000 nM, the TGI (SW-620 colon) was over 10000 nM and the TGI (A549 NSCLC) was over 10000 nM. For the same compound, the TGI (PC-3 prostate) was over 10000 nM, the TGI (HOP-92 NSCLC) was over 10000 nM and the TGI (U251 CNS) was over 10000 nM. The TGI (SK-OV-3 ovarian) was over 10000 nM, the TGI (HCT-116 colon) was over 10000 nM and the TGI (UACC-257 melanoma) was over 10000 nM. For the same compound, the TGI (SK-MEL-5 melanoma) was over 10000 nM.
